Data published in ChEMBL document CHEMBL5584225, “Discovery of an efficacious KDM5B PROTAC degrader GT-653 up-regulating IFN response genes in prostate cancer” (Eur J Med Chem, 2024).
Calls of active or inactive are those of the source. The calls are words filed in the database; no cut-off is given here.

Tests used:
[1] = molecular target: Lysine-specific demethylase 5B (Homo sapiens) (UniProt Q9UGL1); assay: Inhibition of KDM5B (unknown origin) assessed as increase in H3K4me3 level
[2] = molecular target: T1, Protein cereblon/Lysine-specific demethylase 5B (Homo sapiens) (UniProt Q96SW2+Q9UGL1); assay: PROTAC activity at CRBN/KDM5B in human 22Rv1 cells assessed as induction of KDM5B degradation at 10 uM incubated for 12 hrs by Western blot analysis relative to control; format: cell-based
T1 sequence (Q96SW2 whole entry, looked up): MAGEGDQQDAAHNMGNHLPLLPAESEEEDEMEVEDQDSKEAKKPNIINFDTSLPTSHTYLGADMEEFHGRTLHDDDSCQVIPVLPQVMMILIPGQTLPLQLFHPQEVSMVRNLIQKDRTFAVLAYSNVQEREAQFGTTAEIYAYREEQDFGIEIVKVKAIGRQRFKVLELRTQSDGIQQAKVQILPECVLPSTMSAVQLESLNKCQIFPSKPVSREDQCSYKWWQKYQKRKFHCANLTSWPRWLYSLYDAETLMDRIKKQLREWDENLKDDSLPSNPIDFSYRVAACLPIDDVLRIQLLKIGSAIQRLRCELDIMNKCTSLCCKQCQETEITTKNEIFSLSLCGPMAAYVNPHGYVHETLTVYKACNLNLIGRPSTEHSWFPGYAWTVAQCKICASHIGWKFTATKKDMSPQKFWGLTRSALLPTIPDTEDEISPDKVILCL
T1 sequence (Q9UGL1 whole entry, looked up): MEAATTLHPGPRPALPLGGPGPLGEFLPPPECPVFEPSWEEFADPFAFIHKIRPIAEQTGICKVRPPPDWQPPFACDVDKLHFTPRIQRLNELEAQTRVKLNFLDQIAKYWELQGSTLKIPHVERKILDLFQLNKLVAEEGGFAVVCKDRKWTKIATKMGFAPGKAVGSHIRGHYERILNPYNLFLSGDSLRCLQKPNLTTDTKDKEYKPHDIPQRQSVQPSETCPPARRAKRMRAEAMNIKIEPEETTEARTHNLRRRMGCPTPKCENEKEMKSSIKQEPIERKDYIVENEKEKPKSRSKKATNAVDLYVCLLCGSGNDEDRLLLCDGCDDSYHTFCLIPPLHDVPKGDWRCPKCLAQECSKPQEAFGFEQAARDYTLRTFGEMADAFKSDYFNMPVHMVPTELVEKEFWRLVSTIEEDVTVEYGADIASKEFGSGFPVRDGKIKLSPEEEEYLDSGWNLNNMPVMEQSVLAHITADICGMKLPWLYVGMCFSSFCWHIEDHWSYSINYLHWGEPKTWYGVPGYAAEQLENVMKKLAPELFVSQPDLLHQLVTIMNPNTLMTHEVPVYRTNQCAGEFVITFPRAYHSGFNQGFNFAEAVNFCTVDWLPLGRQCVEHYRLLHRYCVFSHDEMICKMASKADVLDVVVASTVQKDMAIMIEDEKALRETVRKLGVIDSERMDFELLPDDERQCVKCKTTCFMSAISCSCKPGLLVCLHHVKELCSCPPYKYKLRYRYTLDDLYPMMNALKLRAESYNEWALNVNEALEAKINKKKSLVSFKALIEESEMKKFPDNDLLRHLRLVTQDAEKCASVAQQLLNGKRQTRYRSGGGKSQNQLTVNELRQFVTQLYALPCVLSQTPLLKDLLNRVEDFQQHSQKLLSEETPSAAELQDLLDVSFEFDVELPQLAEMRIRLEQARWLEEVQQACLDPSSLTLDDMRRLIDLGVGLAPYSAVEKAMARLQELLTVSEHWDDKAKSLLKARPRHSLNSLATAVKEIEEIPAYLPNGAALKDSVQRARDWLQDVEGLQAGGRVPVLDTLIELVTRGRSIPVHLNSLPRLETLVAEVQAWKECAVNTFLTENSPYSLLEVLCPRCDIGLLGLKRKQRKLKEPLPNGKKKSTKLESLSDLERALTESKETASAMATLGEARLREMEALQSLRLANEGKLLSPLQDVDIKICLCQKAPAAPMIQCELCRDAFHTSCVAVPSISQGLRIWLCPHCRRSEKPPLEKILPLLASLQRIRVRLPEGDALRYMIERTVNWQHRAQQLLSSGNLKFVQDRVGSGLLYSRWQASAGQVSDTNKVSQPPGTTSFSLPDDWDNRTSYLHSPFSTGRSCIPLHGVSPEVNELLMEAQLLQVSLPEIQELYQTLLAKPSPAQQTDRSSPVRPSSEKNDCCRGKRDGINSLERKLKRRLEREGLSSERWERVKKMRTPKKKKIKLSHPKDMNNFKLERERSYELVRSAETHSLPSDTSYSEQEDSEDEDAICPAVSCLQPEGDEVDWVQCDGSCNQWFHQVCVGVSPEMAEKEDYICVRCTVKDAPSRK

[3] = molecular target: T1, Protein cereblon/Lysine-specific demethylase 5B (Homo sapiens); assay: PROTAC activity at CRBN/KDM5B in human 22Rv1 cells assessed as reduction in KDM5B level at 0 to 20 uM incubated for 24 hrs by Western blot analysis; format: cell-based; conditions: dose 0-20 µM
[4] = molecular target: Lysine-specific demethylase 5B (Homo sapiens) (UniProt Q9UGL1); assay: Inhibition of KDM5B non-catalytic activity in human 22Rv1 cells assessed as inhibition of KDM5B binding to SETDB1 by measuring reduction in H3K9me3 level at 20 uM incubated for 24 hrs by Co-IP analysis; format: cell-based
[5] = molecular target: T1, Protein cereblon/Lysine-specific demethylase 5B (Homo sapiens); assay: PROTAC activity at CRBN/KDM5B in human 22Rv1 cells assessed as increase in H3K4me3 level by […] analysis; format: cell-based
[6] = molecular target: T1, Protein cereblon/Lysine-specific demethylase 5B (Homo sapiens); assay: PROTAC activity at CRBN/KDM5B in human 22Rv1 cells assessed as induction of KDM5B degradation at 10 uM in presence of cycloheximide measured after 2 to 12 hrs by Western blot analysis; format: cell-based; conditions: time 2-12 hrs
[7] = molecular target: T1, Protein cereblon/Lysine-specific demethylase 5B (Homo sapiens); assay: PROTAC activity at CRBN/KDM5B in human 22Rv1 cells assessed as induction of KDM5B degradation at 5 uM in presence of MG-132 measured after 24 hrs by Western blot analysis; format: cell-based
[8] = molecular target: Lysine-specific demethylase 5B (Homo sapiens) (UniProt Q9UGL1); assay: Induction of FLAG-tagged KDM5B degradation in HEK293T cells overexpressing KDM5B assessed as increase in ubiquitinated FLAG-KDM5B level by immunoprecipitation analysis; format: cell-based
CWR22R [9] = assay: Upregulation of IFI27L2 mRNA expression in KDM5B-deficient human 22Rv1 cells harboring reintroduced KDM5B L685W at 20 uM incubated for 24 hrs by RT-qPCR analysis; format: functional, cell-based
CWR22R [10] = assay: Effect on KDM5B transcription in human 22Rv1 cells at 0 to 20 uM measured after 24 hrs by RT-qPCR analysis; format: functional, cell-based; conditions: dose 0-20 µM
[11] = molecular target: T1, Protein cereblon/Lysine-specific demethylase 5B (Homo sapiens); assay: PROTAC activity at CRBN/KDM5B in human 22Rv1 cells assessed as induction of KDM5B degradation at 5 uM in presence of thalidomide measured after 24 hrs by Western blot analysis; format: cell-based
[12] = molecular target: T1, Protein cereblon/Lysine-specific demethylase 5B (Homo sapiens); assay: Induction of KDM5B-CRBN protein protein interaction in human 22Rv1 cells at 20 uM incubated for 12 hrs in presence of MG-132 by Western blot analysis; format: cell-based
[13] = molecular target: Protein cereblon/Lysine-specific demethylase 5C (Homo sapiens) (UniProt P41229+Q96SW2); assay: Induction of KDM5C-CRBN (unknown origin) protein protein interaction assessed as ternary complex formation; format: protein assay
[14] = molecular target: T1, Protein cereblon/Lysine-specific demethylase 5B (Homo sapiens); assay: PROTAC activity at CRBN/KDM5B in human 22Rv1 cells assessed as increase in H3K4me3 level at 0 to 20 uM incubated for 24 hrs by Western blot analysis; format: cell-based; conditions: dose 0-20 µM
CWR22R [15] = assay: Cytotoxicity against human 22Rv1 cells assessed as reduction in cell proliferation at 0 to 20 uM measured after 24 to 48 hrs by MTS assay; format: toxicity, cell-based; conditions: dose lower 0 µM, time lower 24 hrs, dose upper 20 µM, time upper 48 hrs
CWR22R [16] = assay: Upregulation of HHLA3 mRNA expression in KDM5B-deficient human 22Rv1 cells harboring reintroduced KDM5B L685W at 20 uM incubated for 24 hrs by RT-qPCR analysis; format: functional, cell-based
CWR22R [17] = assay: Upregulation of IRF3 mRNA expression in KDM5B-deficient human 22Rv1 cells harboring reintroduced KDM5B L685W at 20 uM incubated for 24 hrs by RT-qPCR analysis; format: functional, cell-based
[18] = molecular target: Lysine-specific demethylase 5B (Homo sapiens) (UniProt Q9UGL1); assay: Inhibition of KDM5B in human 22Rv1 cells assessed as upregulation of H3K4me3 level at 20 uM incubated for 24 hrs by Western blot analysis; format: cell-based
[19] = molecular target: Lysine-specific demethylase 5B (Homo sapiens) (UniProt Q9UGL1); assay: Inhibition of KDM5B in human 22Rv1 cells assessed as upregulation of IFI35 mRNA expression at 20 uM incubated for 24 hrs by RT-qPCR analysis; format: cell-based
CWR22R [20] = assay: Upregulation of IFI35 mRNA expression in KDM5B-deficient human 22Rv1 cells harboring reintroduced KDM5B L685W at 20 uM incubated for 24 hrs by RT-qPCR analysis; format: functional, cell-based
CWR22R [21] = assay: Downregulation of KDM5B-induced H3K9me3 level in KDM5B-deficient human 22Rv1 cells harboring reintroduced KDM5B L685W at 20 uM incubated for 24 hrs by Western blot analysis; format: functional, cell-based
[22] = molecular target: Lysine-specific demethylase 5B (Homo sapiens) (UniProt Q9UGL1); assay: Inhibition of KDM5B in human 22Rv1 cells assessed as upregulation of IFI27L2 mRNA expression at 20 uM incubated for 24 hrs by RT-qPCR analysis; format: cell-based
[23] = molecular target: T1, Protein cereblon/Lysine-specific demethylase 5B (Homo sapiens); assay: PROTAC activity at CRBN/KDM5B in human 22Rv1 cells assessed as reduction in KDM5B level by RT-qPCR analysis; format: cell-based
[24] = molecular target: Protein cereblon/Lysine-specific demethylase 5A (Homo sapiens) (UniProt P29375+Q96SW2); assay: Induction of KDM5A-CRBN (unknown origin) protein protein interaction assessed as ternary complex formation; format: protein assay
Protein cereblon/Lysine-specific demethylase 5A (Homo sapiens), sequence (P29375 whole entry, looked up): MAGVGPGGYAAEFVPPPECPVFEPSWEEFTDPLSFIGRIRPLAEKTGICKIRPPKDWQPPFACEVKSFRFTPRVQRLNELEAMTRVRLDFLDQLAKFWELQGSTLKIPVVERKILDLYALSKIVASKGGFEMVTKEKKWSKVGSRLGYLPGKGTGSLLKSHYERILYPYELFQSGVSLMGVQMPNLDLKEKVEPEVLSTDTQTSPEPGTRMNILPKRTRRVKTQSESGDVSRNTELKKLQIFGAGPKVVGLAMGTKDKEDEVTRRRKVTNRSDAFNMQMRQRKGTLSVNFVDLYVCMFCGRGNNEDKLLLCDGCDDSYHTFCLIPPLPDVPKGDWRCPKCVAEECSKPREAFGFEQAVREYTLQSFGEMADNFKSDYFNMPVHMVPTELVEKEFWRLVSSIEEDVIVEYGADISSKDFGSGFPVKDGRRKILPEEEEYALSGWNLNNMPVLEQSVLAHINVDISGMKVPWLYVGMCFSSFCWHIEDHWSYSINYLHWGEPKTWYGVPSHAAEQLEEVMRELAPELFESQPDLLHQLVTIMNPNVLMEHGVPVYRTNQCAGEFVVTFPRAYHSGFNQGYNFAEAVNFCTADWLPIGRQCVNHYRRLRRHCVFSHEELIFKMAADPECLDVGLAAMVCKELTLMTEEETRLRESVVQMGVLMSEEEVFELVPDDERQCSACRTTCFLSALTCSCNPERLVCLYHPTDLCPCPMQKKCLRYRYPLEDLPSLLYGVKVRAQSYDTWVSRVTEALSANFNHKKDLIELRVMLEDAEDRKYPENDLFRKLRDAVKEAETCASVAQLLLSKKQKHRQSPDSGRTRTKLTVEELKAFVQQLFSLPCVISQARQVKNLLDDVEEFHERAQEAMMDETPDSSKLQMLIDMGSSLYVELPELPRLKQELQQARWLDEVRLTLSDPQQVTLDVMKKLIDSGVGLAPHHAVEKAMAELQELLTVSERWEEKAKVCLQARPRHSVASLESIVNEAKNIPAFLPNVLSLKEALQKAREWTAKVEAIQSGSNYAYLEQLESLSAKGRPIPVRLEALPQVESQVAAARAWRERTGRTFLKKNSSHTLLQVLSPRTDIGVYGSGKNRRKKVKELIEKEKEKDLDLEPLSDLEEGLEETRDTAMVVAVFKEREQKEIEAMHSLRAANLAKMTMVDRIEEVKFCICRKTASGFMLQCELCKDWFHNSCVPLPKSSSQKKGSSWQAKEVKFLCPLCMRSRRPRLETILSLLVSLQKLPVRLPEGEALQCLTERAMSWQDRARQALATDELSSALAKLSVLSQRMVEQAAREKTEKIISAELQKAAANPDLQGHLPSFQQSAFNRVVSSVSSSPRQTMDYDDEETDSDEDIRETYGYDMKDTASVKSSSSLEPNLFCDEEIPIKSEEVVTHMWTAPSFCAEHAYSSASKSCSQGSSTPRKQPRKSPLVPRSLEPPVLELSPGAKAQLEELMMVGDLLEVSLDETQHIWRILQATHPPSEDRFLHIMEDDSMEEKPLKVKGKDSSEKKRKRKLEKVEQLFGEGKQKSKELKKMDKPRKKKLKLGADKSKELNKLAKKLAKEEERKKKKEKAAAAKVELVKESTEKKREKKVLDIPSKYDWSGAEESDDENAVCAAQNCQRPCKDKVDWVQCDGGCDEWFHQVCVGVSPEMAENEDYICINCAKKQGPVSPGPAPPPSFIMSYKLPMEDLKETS
Protein cereblon/Lysine-specific demethylase 5A (Homo sapiens), sequence (Q96SW2 whole entry, looked up): as the sequence (Q96SW2 whole entry, looked up) above

[25] = molecular target: T1, Protein cereblon/Lysine-specific demethylase 5B (Homo sapiens); assay: PROTAC activity at CRBN/KDM5B in human 22Rv1 cells assessed as induction of KDM5B degradation at 5 uM in presence of CPI-455 measured after 24 hrs by Western blot analysis; format: cell-based
[26] = molecular target: Lysine-specific demethylase 5B (Homo sapiens) (UniProt Q9UGL1); assay: Inhibition of KDM5B in human 22Rv1 cells assessed as upregulation of HHLA3 mRNA expression at 20 uM incubated for 24 hrs by RT-qPCR analysis; format: cell-based
[27] = tested on: Protein cereblon/Lysine-specific demethylase 5B (Homo sapiens), Q96SW2+Q9UGL1 [L685W]; assay: PROTAC activity at CRBN/KDM5B L685W mutant in KDM5B-deficient human 22Rv1 cells harboring reintroduced KDM5B L685W assessed as induction of protein degradation at 20 uM incubated for 24 hrs by Western blot analysis; format: cell-based
[28] = molecular target: Lysine-specific demethylase 5B (Homo sapiens) (UniProt Q9UGL1); assay: Inhibition of KDM5B in human 22Rv1 cells assessed as upregulation of IRF3 mRNA expression at 20 uM incubated for 24 hrs by RT-qPCR analysis; format: cell-based

Lysine-specific demethylase 5B (Homo sapiens), sequence (Q9UGL1 whole entry): as the sequence (Q9UGL1 whole entry, looked up) above

In the case of `CC(C)(C)OC(=O)NCCOc1ccc(-c2cc(=O)n3ncc(C#N)c3[nH]2)cc1`, the inhibition [1] is reported as “Active”.

With `N#Cc1cnn2c(=O)cc(-c3ccc(OCCNC(=O)CCOCCOCCOCCNc4cccc5c4C(=O)N(C4CCC(=O)NC4=O)C5=O)cc3)[nH]c12` (centres undefined) the Activity [2] was 0%.

For `N#Cc1cnn2c(=O)cc(-c3ccc(OCC(=O)NCCOCCOc4cccc5c4C(=O)N(C4CCC(=O)NC4=O)C5=O)cc3)[nH]c12` (centres undefined), the Activity [3] was “Active”, the inhibition [4] was “Active” and the Activity [5] was “Active”. For the same compound, the Activity [6] was “Active”, the Activity [7] was “inactive” and the Activity [8] was “Active”. For the same compound, the Activity (CWR22R [9]) was “Active”, the Activity (CWR22R [10]) was “inactive” and the Activity [11] was “inactive”. The Activity [12] was “Active”, the Activity [13] was “inactive” and the Activity [14] was “Active”. For the same compound, the Activity (CWR22R [15]) was “Non-Toxic”, the Activity [2] was 68.3% and the Activity (CWR22R [16]) was “Active”. For the same compound, the Activity (CWR22R [17]) was “Active”, the inhibition [18] was “Active” and the inhibition [19] was “Active”. The Activity (CWR22R [20]) was “Active”, the Activity (CWR22R [21]) was “Active” and the inhibition [22] was “Active”. The Activity [23] was “Active”, the Activity [24] was “inactive” and the Activity [25] was “inactive”. The inhibition [26] was “Active”, the Activity [27] was “Active” and the inhibition [28] was “Active”.

For `CC(C)(C)OC(=O)COc1ccc(-c2cc(=O)n3ncc(C#N)c3[nH]2)cc1`, the inhibition [1] was “Active”.

Work on `N#Cc1cnn2c(=O)cc(-c3ccc(OCC(=O)NCCOCCNC(=O)CNc4cccc5c4C(=O)N(C4CCC(=O)NC4=O)C5=O)cc3)[nH]c12` (centres undefined) yielded an Activity [2] of 0%.

For `N#Cc1cnn2c(=O)cc(-c3ccc(OCCNC(=O)CCOCCOCCNc4cccc5c4C(=O)N(C4CCC(=O)NC4=O)C5=O)cc3)[nH]c12` (centres undefined), the Activity [2] was 0%.

Compound `N#Cc1cnn2c(=O)cc(-c3ccc(OCCNC(=O)CCOCCNc4cccc5c4C(=O)N(C4CCC(=O)NC4=O)C5=O)cc3)[nH]c12` (centres undefined) has an Activity [2] of 5.27%.

Work on `N#Cc1cnn2c(=O)cc(-c3ccc(OCC(=O)NCCOCCNC(=O)COc4cccc5c4C(=O)N(C4CCC(=O)NC4=O)C5=O)cc3)[nH]c12` (centres undefined) yielded an Activity [2] of 0%.

`N#Cc1cnn2c(=O)cc(-c3ccc(OCCNC(=O)CCOCCOc4cccc5c4C(=O)N(C4CCC(=O)NC4=O)C5=O)cc3)[nH]c12` (centres undefined) was tested, and the Activity [2] was 6.31%.

`CC(C)c1c(-c2ccccc2)[nH]c2c(C#N)cnn2c1=O` was tested, and the inhibition [18] was “Active”.

`N#Cc1cnn2c(=O)cc(-c3ccc(OCCNC(=O)CCCNc4cccc5c4C(=O)N(C4CCC(=O)NC4=O)C5=O)cc3)[nH]c12` (centres undefined) showed an Activity [2] of 0%.

For `N#Cc1cnn2c(=O)cc(-c3ccc(OCCNC(=O)CCOCCOCCOCCOCCNc4cccc5c4C(=O)N(C4CCC(=O)NC4=O)C5=O)cc3)[nH]c12` (centres undefined), the Activity [2] was 0%.

`N#Cc1cnn2c(=O)cc(-c3ccc(OCCNC(=O)CCCCCNc4cccc5c4C(=O)N(C4CCC(=O)NC4=O)C5=O)cc3)[nH]c12` (centres undefined) was tested, and the Activity [2] was 10.8%.
